Literature values as cited in patent publication US5173304A, “Agents for the treatment of severe pain and preparation of said agents” (Dolorgiet Beteiligungs GmbH, priority 1989, dated 1992).

Settings: in vivo

**Q.** For CC(C)Cc1ccc(C(C)C(=O)O)cc1 (centres unmarked) [ibuprofen], which Analgesic effectiveness is on record?
**A.** effective analgesic

**Q.** What about the Tolerability of the same compound?
**A.** well tolerated
